These results are taken from patent US8841453B2, “Hybrid cholinesterase inhibitors” (priority 2011, dated 2014).

Assay [1] concerns the target AChE from the erythrocytes (Homo sapiens (Human), UniProt P22303). Briefly: Ellman's method, acetylcholinesterase inhibition. The class given is biochemical. The settings on record: human erythrocyte AChE, phosphate buffer pH 8.0 as reference. Here is the method: (§1) The biological activity of the compounds of general formula (I) towards the cholinesterase inhibition was evaluated using Ellman's method (Ellman, G. L.; Courtney, K. D.; Anders, B.; Featherstone, R. M. Biochem. Pharmacol. 1961, 7, 88-95).
(§2) The inhibitor causes the enzyme activity drop which is dependent on the inhibitor concentration. […] The amount of the hydrolyzed ASCh/BSCh is measured indirectly, by quantification of the product of its reaction with DTNB (5,5′-dithio-bis-2-nitrobenzoic acid). Ellman's method relies therefore on the spectrophotometric quantification of product of the reaction between acylthiocholine and DTNB. IC50 value corresponds to the inhibitor concentration which causes the 50% decrease of the enzyme activity.
(§3) The enzymes are derived from human blood: AChE from the erythrocytes and BChE from the plasma. The phosphate buffer of pH 8.0 is used as the reference compound (lack of inhibition; enzyme activity—100%).

For the next assay, the target named is BChE from the plasma (Homo sapiens (Human), UniProt P06276). Nature of the assay: Ellman's method, butyrylcholinesterase inhibition. The assay is classed as biochemical. The settings on record: for IC50: human plasma BChE, Ellman's method, phosphate buffer pH 8.0 as reference; for Selectivity IC50(AChE)/IC50(BChE): ratio of IC50 for AChE to IC50 for BChE. The method, then: as §1, §2, §3
Sequence of BChE from the plasma (P06276 29-602): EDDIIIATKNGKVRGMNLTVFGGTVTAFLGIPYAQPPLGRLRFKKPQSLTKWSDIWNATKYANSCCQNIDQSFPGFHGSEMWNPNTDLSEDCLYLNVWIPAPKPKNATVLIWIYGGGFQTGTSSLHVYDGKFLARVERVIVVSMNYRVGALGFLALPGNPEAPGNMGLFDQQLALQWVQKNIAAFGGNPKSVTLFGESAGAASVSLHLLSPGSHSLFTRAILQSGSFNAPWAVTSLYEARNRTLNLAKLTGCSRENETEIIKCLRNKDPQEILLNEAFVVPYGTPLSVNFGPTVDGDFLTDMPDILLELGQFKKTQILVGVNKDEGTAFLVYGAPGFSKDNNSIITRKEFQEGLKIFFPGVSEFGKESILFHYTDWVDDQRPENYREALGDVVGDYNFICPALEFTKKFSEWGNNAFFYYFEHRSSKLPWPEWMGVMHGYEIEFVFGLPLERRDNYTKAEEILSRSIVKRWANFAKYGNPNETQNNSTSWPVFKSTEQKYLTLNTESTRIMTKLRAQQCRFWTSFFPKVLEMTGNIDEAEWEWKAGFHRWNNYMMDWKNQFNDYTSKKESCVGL
A general note: Ellman's reagent forms a yellow product with free thiols.

Sequence of AChE from the erythrocytes (P22303 32-574 with tags or gaps limits assumed): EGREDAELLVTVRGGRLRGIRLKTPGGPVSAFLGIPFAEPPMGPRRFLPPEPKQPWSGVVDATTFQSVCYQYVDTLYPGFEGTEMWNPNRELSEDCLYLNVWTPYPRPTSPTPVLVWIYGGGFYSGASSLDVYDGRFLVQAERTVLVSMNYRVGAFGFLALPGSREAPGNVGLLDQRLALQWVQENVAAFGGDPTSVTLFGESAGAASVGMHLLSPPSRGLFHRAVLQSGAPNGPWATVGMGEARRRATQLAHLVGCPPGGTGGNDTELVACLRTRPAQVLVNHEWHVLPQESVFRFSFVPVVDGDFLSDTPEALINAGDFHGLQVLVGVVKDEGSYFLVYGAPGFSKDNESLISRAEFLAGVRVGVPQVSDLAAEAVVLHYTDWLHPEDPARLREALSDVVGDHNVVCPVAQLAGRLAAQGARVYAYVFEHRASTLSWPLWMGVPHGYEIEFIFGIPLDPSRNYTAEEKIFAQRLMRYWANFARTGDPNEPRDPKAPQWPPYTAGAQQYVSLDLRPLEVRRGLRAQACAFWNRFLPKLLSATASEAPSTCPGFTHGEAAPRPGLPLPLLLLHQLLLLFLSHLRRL

By IC50 is commonly meant the concentration needed to halve the response being measured. Read a high IC50 as a need for much substance. Regarding `CC(=O)NCCc1c[nH]c2ccc(OC(=O)NCCCCCCCCCCNc3c4c(nc5ccccc35)CCCC4)cc12` [Example 14, 3-[2-(acetylamino)ethyl]-1H-indol-5-yl[10-(1,2,3,4-tetrahydroacridin-9-ylamino)decyl]carbamate], the IC50 in assay [1] was 1.18 ± 0.12 nM; on BChE from the plasma, 0.28 ± 0.04 nM. For the same compound, the “Selectivity IC50(AChE)/IC50(BChE)” value on BChE from the plasma amounted to 4.2.

In turn, `CC(=O)NCCc1c[nH]c2ccc(OC(=O)NCCCCCCCCNc3c4c(nc5ccccc35)CCCC4)cc12` [Example 11, 3-[2-(acetylamino)ethyl]-1H-indol-5-yl[8-(1,2,3,4-tetrahydroacridin-9-ylamino)octyl]carbamate] registered an IC50 in assay [1] of 4.61 ± 0.32 nM. At BChE from the plasma, the IC50 was determined as 0.25 ± 0.03 nM and the “Selectivity IC50(AChE)/IC50(BChE)” value is 18.4.

On to `CC(=O)NCCc1c[nH]c2ccc(OC(=O)NCCCCCCCCCCCCNc3c4c(nc5ccccc35)CCCC4)cc12` [Example 15, 3-[2-(acetylamino)ethyl]-1H-indol-5-yl[12-(1,2,3,4-tetrahydroacridin-9-ylamino)dodecyl]carbamate], for which the values for the IC50 (in assay [1]; against BChE from the plasma) were 3.8 ± 0.16 nM and 0.24 ± 0.08 nM, respectively. Further, the “Selectivity IC50(AChE)/IC50(BChE)” value on BChE from the plasma was 15.8.

Consider `CC(=O)NCCc1c[nH]c2ccc(OC(=O)NCCCCCCCNc3c4c(nc5ccc(Cl)cc35)CCCC4)cc12` [Example 12, 3-[2-(acetylamino)ethyl]-1H-indol-5-yl{7-[(7-chloro-1,2,3,4-tetrahydroacridin-9-yl)amino]heptyl}carbamate], for which the “Selectivity IC50(AChE)/IC50(BChE)” value on BChE from the plasma was determined as 45.3.

Turning to `CC(=O)NCCc1c[nH]c2ccc(OC(=O)NCCCCNc3c4c(nc5ccccc35)CCCC4)cc12` [Example 9, 3-[2-(acetylamino)ethyl]-1H-indol-5-yl[4-(1,2,3,4-tetrahydroacridin-9-ylamino)butyl]carbamate], the IC50 in assay [1] was determined as 378 ± 42.4 nM; against BChE from the plasma it was 15.5 ± 2.84 nM. Also, the “Selectivity IC50(AChE)/IC50(BChE)” value at BChE from the plasma is 24.4.

For the compound `CC(=O)NCCc1c[nH]c2ccc(OC(=O)NCCNc3c4c(nc5cc(Cl)ccc35)CCCC4)cc12` [Example 5, 3-[2-(acetylamino)ethyl]-1H-indol-5-yl{2-[(6-chloro-1,2,3,4-tetrahydroacridin-9-yl)amino]ethyl}carbamate], at BChE from the plasma, the “Selectivity IC50(AChE)/IC50(BChE)” value worked out at 0.6.

Regarding `CC(=O)O[C@@]12CCN(C(C)=O)[C@@H]1N(C(C)=O)c1ccc(OC(=O)NCCCCCCNc3c4c(nc5ccccc35)CCCC4)cc12` (stereo in doubt) [Example 7, 1,8-diacetyl-5-({[6-(1,2,3,4-tetrahydroacridin-9-ylamino)hexyl]carbamoyl}oxy)-2,3,8,8a-tetrahydropyrrolo[2,3-b]indol-3a(1H)-yl acetate], the IC50 turned out to be 36.8 ± 2.87 nM in assay [1] and 3.15 ± 0.83 nM against BChE from the plasma. Further, the “Selectivity IC50(AChE)/IC50(BChE)” value on BChE from the plasma is 11.7.

In the case of `CC(=O)NCCc1c[nH]c2ccc(OC(=O)NCCCCCCCCCCCCNc3c4c(nc5cc(Cl)ccc35)CCCC4)cc12` [Example 19, 3-[2-(acetylamino)ethyl]-1H-indol-5-yl{12-[(6-chloro-1,2,3,4-tetrahydroacridin-9-yl)amino]dodecyl}carbamate], the “Selectivity IC50(AChE)/IC50(BChE)” value on BChE from the plasma amounted to 19.5.

Turning to `CC(=O)NCCc1c[nH]c2ccc(OC(=O)NCCCCCCCCCCNc3c4c(nc5cc(Cl)ccc35)CCCC4)cc12` [Example 18, 3-[2-(acetylamino)ethyl]-1H-indol-5-yl{10-[(6-chloro-1,2,3,4-tetrahydroacridin-9-yl)amino]decyl}carbamate], at BChE from the plasma, the “Selectivity IC50(AChE)/IC50(BChE)” value is on record as 6.7.

Regarding `CC(=O)NCCc1c[nH]c2ccc(OC(=O)NCCCCCCCNc3c4c(nc5cc(Cl)ccc35)CCCC4)cc12` [Example 4, 3-[2-(acetylamino)ethyl]-1H-indol-5-yl{7-[(6-chloro-1,2,3,4-tetrahydroacridin-9-yl)amino]heptyl}carbamate], the “Selectivity IC50(AChE)/IC50(BChE)” value on BChE from the plasma worked out at 20.3.

For the compound `CC(=O)NCCc1c[nH]c2ccc(OC(=O)NCCCCCCCNc3c4c(nc5ccccc35)CCCC4)cc12` [Example 1, 3-[2-(acetylamino)ethyl]-1H-indol-5-yl[7-(1,2,3,4-tetrahydroacridin-9-ylamino)heptyl]carbamate], the IC50 in assay [1] is 33.8 ± 2.74 nM; at BChE from the plasma it was 0.25 ± 0.02 nM. The “Selectivity IC50(AChE)/IC50(BChE)” value on BChE from the plasma is on record as 135.1.

For the compound `CC(=O)NCCc1c[nH]c2ccc(OC(=O)NCCCCCCCCCCNc3c4c(nc5ccc(Cl)cc35)CCCC4)cc12` [Example 16, 3-[2-(acetylamino)ethyl]-1H-indol-5-yl{10-[(7-chloro-1,2,3,4-tetrahydroacridin-9-yl)amino]decyl}carbamate], the IC50 in assay [1] was determined as 1.43 ± 0.02 nM; against BChE from the plasma, 1.64 ± 0.14 nM. For the same compound, the “Selectivity IC50(AChE)/IC50(BChE)” value at BChE from the plasma was 0.9.

With `CC(=O)NCCc1c[nH]c2ccc(OC(=O)NCCNc3c4c(nc5ccc(Cl)cc35)CCCC4)cc12` [Example 13, 3-[2-(acetylamino)ethyl]-1H-indol-5-yl{2-[(7-chloro-1,2,3,4-tetrahydroacridin-9-yl)amino]ethyl}carbamate], the “Selectivity IC50(AChE)/IC50(BChE)” value on BChE from the plasma came out at 400.1.

Regarding `CC(=O)NCCc1c[nH]c2ccc(OC(=O)NCCCNc3c4c(nc5ccccc35)CCCC4)cc12` [Example 8, 3-[2-(acetylamino)ethyl]-1H-indol-5-yl[3-(1,2,3,4-tetrahydroacridin-9-ylamino)propyl]carbamate], the figures for the IC50 (in assay [1]; at BChE from the plasma) were 270 ± 19.4 nM and 58.2 ± 9.62 nM, respectively. Further, the “Selectivity IC50(AChE)/IC50(BChE)” value at BChE from the plasma is given as 4.6.

`CC(=O)NCCc1c[nH]c2ccc(OC(=O)NCCCCCCCCCCCCNc3c4c(nc5ccc(Cl)cc35)CCCC4)cc12` [Example 17, 3-[2-(acetylamino)ethyl]-1H-indol-5-yl{12-[(7-chloro-1,2,3,4-tetrahydroacridin-9-yl)amino]dodecyl}carbamate] came in with an IC50 in assay [1] of 7 ± 0.72 nM. On BChE from the plasma, the IC50 amounted to 0.78 ± 0.16 nM and the “Selectivity IC50(AChE)/IC50(BChE)” value worked out at 9.

For the compound `CC(=O)NCCc1c[nH]c2ccc(OC(=O)NCCCCCCNc3c4c(nc5ccccc35)CCCC4)cc12` [Example 3, 3-[2-(acetylamino)ethyl]-1H-indol-5-yl[6-(1,2,3,4-tetrahydroacridin-9-ylamino)hexyl]carbamate], the IC50 in assay [1] came out at 178 ± 16.3 nM. Further, at BChE from the plasma, half-maximal inhibition (IC50) was put at 2.04 ± 0.22 nM and the “Selectivity IC50(AChE)/IC50(BChE)” value is reported as 87.4.

In assay [1], `CC(=O)NCCc1c[nH]c2ccc(OC(=O)NCCCCCNc3c4c(nc5ccccc35)CCCC4)cc12` [Example 10, 3-[2-(acetylamino)ethyl]-1H-indol-5-yl[5-(1,2,3,4-tetrahydroacridin-9-ylamino)pentyl]carbamate] came in with an IC50 of 186 ± 11.2 nM. Besides, at BChE from the plasma, it took 2.07 ± 0.5 nM to reach half-maximal inhibition (IC50) and the “Selectivity IC50(AChE)/IC50(BChE)” value was determined as 90.1.
